Consider eleven compounds from patent US11945794B2, “Nuclear transport modulators and uses thereof” (Karyopharm Therapeutics Inc., priority 2013, dated 2024).

Format in all cases: cell-based
Test [1] deals with T1, CRM1 (Homo sapiens, UniProt O14980).
T1 construct: endogenous in cells; host or cells: U2OS cells stably expressing Rev-GFP
The test is described as follows: Inhibition of nuclear export, RevGFP assay in U2OS-RevGFP cells. Particulars: approximately 1 hour incubation. The protocol:
The inhibition of CRM1 mediated nuclear export by compounds of the invention was determined in a RevGFP assay. Rev is a protein from human immunodeficiency virus type 1 (HIV-1) and contains a nuclear export signal (NES) in its C-terminal domain and a nuclear localization signal (NLS) in its N-terminal domain. Nuclear export of Rev protein is dependent on the classical NES/CRM1 pathway (Neville et al, 1997, Kau et al, 2003).
In this assay, U2OS-RevGFP cells were seeded onto clear-bottom, black, 384-well plates the day before the experiment. Compounds were serially diluted 1:2 starting from 40 μM in a separate 384-well plate in DMEM, and then transferred onto cells. Cells were incubated with compound for approximately 1 hour before fixation with 3.7% formaldehyde and nuclei staining with Hoechst 33258. The amount of GFP in cell nuclei was measured and compound IC50s were determined (Kau et al, 2003).

Test [2] concerns 3T3 cells. The test is described as follows: MTT cell proliferation assay. Particulars: Mus musculus, NIH3T3, approximately 64-72 hours. The protocol: (§1) The MTT cell proliferation assay was used to study the cytotoxic properties of the compounds. The assay was performed according to the method described by Roche Molecular Biochemicals, with minor modifications. The assay is based on the cleavage of the tetrazolium salt, MTT, in the presence of an electron-coupling reagent. The water-insoluble formazan salt produced must be solubilized in an additional step. Cells grown in a 96-well tissue culture plate were incubated with the MTT solution for approximately 4 hours. After this incubation period, a water-insoluble formazan dye formed. After solubilization, the formazan dye was quantitated using a scanning multi-well spectrophotometer (ELISA reader). […] The cells were seeded at 5,000-10,000 cells in each well of 96-well plate in 100 μL of fresh culture medium and were allowed to attach overnight. The stock solutions of the compounds were diluted in 100 μL cell culture medium to obtain eight concentrations of each test compound, ranging from 1 nM to 30 μM. […] All optical densities were measured at 490 nm using a Vmax Kinetic Microplate Reader (Molecular Devices). In most cases, the assay was performed in duplicate and the results were presented as a mean percent inhibition to the negative control±SE. The following formula was used to calculate the percent of inhibition: Inhibition (%)=(1−(ODo/OD))×100.
(§2) The compounds were tested against Z138, MM1S and 3T3 cells. The Z138 cell line is a mature B-cell acute lymphoblastic leukemia cell line derived from a patient with chronic lumphocytic leukemia. The MM1S cell line was established from the peripheral blood of a human multiple myeloma patient. 3T3 cells are standard fibroblast cells; they were originally isolated from Swiss mouse embryo tissue.

Test [3] concerns MM1S cells. The test is described as follows: MTT cell proliferation assay. Particulars: Homo sapiens, MM1.S, approximately 64-72 hours. The protocol:
as §1, §2
(Tetrazolium dyes change colour on reduction, which living cells bring about.)

Test [4] has as its system Z138 cells. Briefly: MTT cell proliferation assay. Conditions: Homo sapiens, Z-138, approximately 64-72 hours. The protocol: as §1, §2

T1 sequence (O14980 whole entry): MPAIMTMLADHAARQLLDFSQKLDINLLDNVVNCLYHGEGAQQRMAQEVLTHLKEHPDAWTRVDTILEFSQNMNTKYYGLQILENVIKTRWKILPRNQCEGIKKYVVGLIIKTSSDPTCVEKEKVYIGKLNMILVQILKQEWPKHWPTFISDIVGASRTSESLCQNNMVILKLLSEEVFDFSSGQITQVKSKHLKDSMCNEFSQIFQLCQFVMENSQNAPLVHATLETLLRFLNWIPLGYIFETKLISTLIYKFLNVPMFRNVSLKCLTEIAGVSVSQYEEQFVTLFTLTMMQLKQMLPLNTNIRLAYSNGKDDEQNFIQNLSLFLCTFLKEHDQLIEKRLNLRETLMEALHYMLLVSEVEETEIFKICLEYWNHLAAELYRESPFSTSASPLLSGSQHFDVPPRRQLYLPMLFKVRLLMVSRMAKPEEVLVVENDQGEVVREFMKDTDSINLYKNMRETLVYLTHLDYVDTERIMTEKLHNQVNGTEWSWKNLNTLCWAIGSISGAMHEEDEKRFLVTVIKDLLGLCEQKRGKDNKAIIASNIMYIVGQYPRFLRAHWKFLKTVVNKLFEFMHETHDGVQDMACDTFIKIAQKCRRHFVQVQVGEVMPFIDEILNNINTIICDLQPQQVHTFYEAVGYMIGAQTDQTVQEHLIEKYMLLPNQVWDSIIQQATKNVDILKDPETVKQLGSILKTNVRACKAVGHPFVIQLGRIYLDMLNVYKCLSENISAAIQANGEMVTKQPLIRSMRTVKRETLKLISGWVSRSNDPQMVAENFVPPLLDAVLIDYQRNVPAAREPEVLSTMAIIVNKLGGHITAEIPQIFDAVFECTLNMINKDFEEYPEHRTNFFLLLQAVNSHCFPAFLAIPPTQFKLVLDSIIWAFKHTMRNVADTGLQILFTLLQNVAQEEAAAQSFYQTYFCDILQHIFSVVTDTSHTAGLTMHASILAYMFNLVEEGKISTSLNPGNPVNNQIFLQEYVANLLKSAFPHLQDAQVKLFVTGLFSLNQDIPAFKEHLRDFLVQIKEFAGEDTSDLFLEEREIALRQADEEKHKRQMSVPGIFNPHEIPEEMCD

As for `N#CC(=Cn1cnc(-c2cc(C(F)(F)F)cc(C(F)(F)F)c2)n1)c1ccccn1` [Compound 100, 3-(3-(3,5-bis(trifluoromethyl)phenyl)-1H-1,2,4-triazol-1-yl)-2-(pyridin-2-yl)acrylonitrile], the IC50 in test [1], in test [2], in test [3] and in test [4] was more than 30 µM throughout.
On to `CC(C)OC(=O)/C(=C/n1cnc(-c2cc(C(F)(F)F)cc(C(F)(F)F)c2)n1)c1cncnc1` [Compound 115, isopropyl (E)-3-(3-(3,5-bis(trifluoromethyl)phenyl)-1H-1,2,4-triazol-1-yl)-2-(pyrimidin-5-yl)acrylate], for which the half-maximal inhibitory concentration (IC50) in test [1] and in test [3] was 0.1 to 5 µM in each case.
Consider `NC(=O)/C(=C/n1cnc(-c2cc(C(F)(F)F)cc(C(F)(F)F)c2)n1)c1nccs1` [Compound 111, (Z)-3-(3-(3,5-bis(trifluoromethyl)phenyl)-1H-1,2,4-triazol-1-yl)-2-(thiazol-2-yl)acrylamide], for which the figures for the IC50 in test [1], in test [2] and in test [3] were less than 0.1 µM, more than 30 µM and less than 0.1 µM, respectively.
For the compound `CN(C)C(=O)/C(=C/n1cnc(-c2cc(C(F)(F)F)cc(C(F)(F)F)c2)n1)c1ccncc1` [Compound 113, (E)-3-(3-(3,5-bis(trifluoromethyl)phenyl)-1H-1,2,4-triazol-1-yl)-N,N-dimethyl-2-(pyridin-4-yl)acrylamide], the IC50 in test [1] was 5 to 30 µM; in test [3] it was 0.1 to 5 µM.
Take `N#C/C(=C/n1cnc(-c2cc(C(F)(F)F)cc(C(F)(F)F)c2)n1)c1ccncc1` [Compound 105, (E)-3-(3-(3,5-bis(trifluoromethyl)phenyl)-1H-1,2,4-triazol-1-yl)-2-(pyridin-4-yl)acrylonitrile]: the IC50 is 0.1 to 5 µM in test [1], more than 30 µM in test [2] and 0.1 to 5 µM in test [3].
`Cc1noc(C)c1/C(=C\n1cnc(-c2cc(C(F)(F)F)cc(C(F)(F)F)c2)n1)C(=O)OC(C)C` [Compound 116, isopropyl (E)-3-(3-(3,5-bis (trifluoromethyl)phenyl)-1H-1,2,4-triazol-1-yl)-2-(3,5-dimethylisoxazol-4-yl) acrylate]: the half-inhibitory concentration (IC50) in test [1] and in test [3] was 0.1 to 5 µM in each case.
Consider `Cn1cc(/C(=C\n2cnc(-c3cc(C(F)(F)F)cc(C(F)(F)F)c3)n2)C(N)=O)cn1` [Compound 114, (E)-3-(3-(3,5-bis(trifluoromethyl)phenyl)-1H-1,2,4-triazol-1-yl)-2-(1-methyl-1H-pyrazol-4-yl)acrylamide], for which the half-inhibitory concentration (IC50) in test [1] was 0.1 to 5 µM; in test [3], less than 0.1 µM.
Compound `NC(=O)/C(=C/n1cnc(-c2cc(C(F)(F)F)cc(C(F)(F)F)c2)n1)c1cncc(F)c1` [Compound 132, (E)-3-(3-(3,5-bis(trifluoromethyl)phenyl)-1H-1,2,4-triazol-1-yl)-2-(5-fluoropyridin-3-yl)acrylamide] gave an IC50 in test [1] of less than 0.1 µM.
`CC(C)OC(=O)/C(=C/n1cnc(-c2cc(C(F)(F)F)cc(C(F)(F)F)c2)n1)c1cnn(C)c1` [Compound 130, isopropyl (E)-3-(3-(3,5-bis(trifluoromethyl)phenyl)-1H-1,2,4-triazol-1-yl)-2-(1-methyl-1H-pyrazol-4-yl)acrylate]: the half-maximal inhibitory concentration (IC50) in test [1] was 0.1 to 5 µM; in test [3], less than 0.1 µM.
Regarding `NC(=O)/C(=C/n1cnc(-c2cc(C(F)(F)F)cc(C(F)(F)F)c2)n1)c1cncc(F)c1` [Compound 126, (E)-3-(3-(3,5-Bis(trifluoromethyl)phenyl)-1H-1,2,4-triazol-1-yl)-2-(5-fluoropyridin-3-yl)acrylamide], the IC50 in test [2] is more than 30 µM; in test [3] it was less than 0.1 µM; in test [4], less than 0.1 µM.
For the compound `NC(=O)/C(=C/n1cnc(-c2cc(C(F)(F)F)cc(C(F)(F)F)c2)n1)c1cccc(F)n1` [Compound 134, (E)-3-(3-(3,5-bis(trifluoromethyl)phenyl)-1H-1,2,4-triazol-1-yl)-2-(6-fluoropyridin-2-yl)acrylamide], the 50% inhibitory concentration (IC50) in test [2] is 0.1 to 5 µM; in test [3] it was less than 0.1 µM; in test [4] it was 0.1 to 5 µM.

As a reminder, the IC50 is the concentration that inhibits the measured activity by half.
